Assay results published in article PMC6070535, “Identification, Characterization, and X-ray Crystallographic Analysis of a Novel Type of Lectin AJLec from the Sea Anemone Anthopleura japonica” (Scientific Reports, 2018).
In brackets after ≈: the same amount, converted by molar mass.

molecular target: AJLec (Anthopleura japonica Lectin) (Anthopleura japonica); test: crystal structure; AJLec with 100 mM lactose and 1 mM CaCl2 in TBS; vapor diffusion, 200 mM NaCl, 100 mM HEPES pH 7.5, 30% PEG 3350, 20 °C; two chains per asymmetric unit; settings: not given

Compound	stoichiometry N
AJLec (Anthopleura japonica Lectin) (natural protein)	2

molecular target: T1, AJLec (Anthopleura japonica, UniProt A0A2Z5WLM1); test: hemagglutination inhibition, rabbit erythrocytes; assay type: cell-based; settings: 2.4–2.6 μg/mL AJLec, TBS-Ca2+
T1 construct: mature 164 residues, 18,491 Da, precursor 186 residues; N-terminal pyroglutamate; disulfide-linked homodimer (36 kDa); Ca2+ dependent
T1 sequence (A0A2Z5WLM1 23-186): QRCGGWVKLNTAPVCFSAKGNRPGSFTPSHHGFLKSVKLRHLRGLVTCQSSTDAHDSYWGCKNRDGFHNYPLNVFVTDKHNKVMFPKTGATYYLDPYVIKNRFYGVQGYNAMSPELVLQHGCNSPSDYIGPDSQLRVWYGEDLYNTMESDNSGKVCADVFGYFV
From the text: hemagglutination inhibition, rabbit erythrocytes on AJLec

Compound	Minimum inhibitory concentration [mM]
OC[C@H]1O[C@@H](O[C@H]2[C@H](O)[C@@H](O)C(O)O[C@@H]2CO)[C@H](O)[C@@H](O)[C@H]1O (some centres unmarked) [Lactose]	0.1 (≈ 34.2 µg/mL)
OC[C@H]1O[C@H](OC[C@H]2OC(O)(CO)[C@@H](O)[C@@H]2O)[C@H](O)[C@@H](O)[C@@H]1O (some centres unmarked) [Palatinose]	3.1 (≈ 1060 µg/mL)
CO[C@H]1O[C@H](CO)[C@@H](O)[C@H](O)[C@@H]1O [Me-α-Man]	> 25
OC[C@H]1O[C@H](O[C@H]2[C@H](O)[C@@H](O)C(O)O[C@@H]2CO)[C@H](O)[C@@H](O)[C@@H]1O (some centres unmarked) [Maltose]	6.3 (≈ 2160 µg/mL)
OC[C@H]1OC(O)[C@@H](O)[C@@H](O)[C@@H]1O (stereo partly drawn) [D-Mannose]	> 25
CO[C@H]1O[C@H](CO)[C@H](O)[C@H](O)[C@H]1O [Me-α-Gal]	0.8 (≈ 155 µg/mL)
C[C@@H]1OC(O)[C@@H](O)[C@H](O)[C@@H]1O (stereo partly drawn) [L-Fucose]	3 (≈ 492 µg/mL)
OC[C@H]1O[C@H](OC[C@H]2OC(O)[C@H](O)[C@@H](O)[C@@H]2O)[C@H](O)[C@@H](O)[C@H]1O (some centres unmarked) [Melibiose]	0.8 (≈ 274 µg/mL)
OC[C@H]1OC(O)[C@H](O)[C@@H](O)[C@@H]1O (stereo partly drawn) [D-Glucose]	> 25
CC(=O)N[C@H]1C(O)O[C@H](CO)[C@H](O)[C@@H]1O (some centres unmarked) [N-Acetylgalactosamine]	25 (≈ 5530 µg/mL)
OC[C@H]1O[C@@H](O[C@@H]2[C@@H](CO)OC(O)(CO)[C@H]2O)[C@H](O)[C@@H](O)[C@H]1O (some centres unmarked) [Lactulose]	0.1 (≈ 34.2 µg/mL)
OC[C@H]1OC(O)[C@H](O)[C@@H](O)[C@H]1O (some centres unmarked) [Galactose]	0.05 (≈ 9.01 µg/mL)
CO[C@@H]1O[C@H](CO)[C@H](O)[C@H](O)[C@H]1O [Me-β-Gal]	0.4 (≈ 77.7 µg/mL)
OC[C@H]1O[C@H](OC[C@H]2O[C@H](O[C@]3(CO)O[C@H](CO)[C@@H](O)[C@@H]3O)[C@H](O)[C@@H](O)[C@@H]2O)[C@H](O)[C@@H](O)[C@H]1O [Raffinose]	0.8 (≈ 404 µg/mL)
CO[C@H]1O[C@H](CO)[C@@H](O)[C@H](O)[C@H]1O [Me-α-Glc]	> 25
C[C@@H]1OC(O)[C@H](O)[C@H](O)[C@H]1O (stereo partly drawn) [L-Rhamnose]	3 (≈ 492 µg/mL)
